In patent EP4722212A1, “NOVEL COMPOUND FOR INHIBITING PROTEIN KINASES AND PHARMACEUTICAL COMPOSITION COMPRISING SAME” (Magicbullettherapeutics Co., Ltd., priority 2023, dated 2024):
Where two headings read alike, the source gives them in different places.

What was measured:
Assay in all cases: Kinase panel
Type in all cases: biochemical
KDR/VEGFR2 = KDR/VEGFR2 (Homo sapiens, UniProt P35968); conditions: KDR/VEGFR2, 1 µM; read-out: residual enzyme activity
Summary of the method: (§1)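 Residual enzyme activity is given for kinases screened biochemically with compound at a fixed 1 µM. Kinases showing ≤40% residual activity (≥60% inhibition) were identified as inhibited.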

TTBK1 = TTBK1 (Homo sapiens, UniProt Q5TCY1); conditions: TTBK1, 1 µM; read-out: residual enzyme activity
Summary of the method: as §1

STK21/CIT = STK21/CIT (Homo sapiens, UniProt O14578); conditions: read-out: residual enzyme activity
Summary of the method: as §1

MLCK/MYLK = MLCK/MYLK (Homo sapiens, UniProt Q15746); conditions: read-out: residual enzyme activity
Summary of the method: as §1

FLT3 = FLT3 (Homo sapiens, UniProt P36888); conditions: FLT3, 1 µM; read-out: residual enzyme activity
Chain of FLT3 (P36888 27-993, species assumed): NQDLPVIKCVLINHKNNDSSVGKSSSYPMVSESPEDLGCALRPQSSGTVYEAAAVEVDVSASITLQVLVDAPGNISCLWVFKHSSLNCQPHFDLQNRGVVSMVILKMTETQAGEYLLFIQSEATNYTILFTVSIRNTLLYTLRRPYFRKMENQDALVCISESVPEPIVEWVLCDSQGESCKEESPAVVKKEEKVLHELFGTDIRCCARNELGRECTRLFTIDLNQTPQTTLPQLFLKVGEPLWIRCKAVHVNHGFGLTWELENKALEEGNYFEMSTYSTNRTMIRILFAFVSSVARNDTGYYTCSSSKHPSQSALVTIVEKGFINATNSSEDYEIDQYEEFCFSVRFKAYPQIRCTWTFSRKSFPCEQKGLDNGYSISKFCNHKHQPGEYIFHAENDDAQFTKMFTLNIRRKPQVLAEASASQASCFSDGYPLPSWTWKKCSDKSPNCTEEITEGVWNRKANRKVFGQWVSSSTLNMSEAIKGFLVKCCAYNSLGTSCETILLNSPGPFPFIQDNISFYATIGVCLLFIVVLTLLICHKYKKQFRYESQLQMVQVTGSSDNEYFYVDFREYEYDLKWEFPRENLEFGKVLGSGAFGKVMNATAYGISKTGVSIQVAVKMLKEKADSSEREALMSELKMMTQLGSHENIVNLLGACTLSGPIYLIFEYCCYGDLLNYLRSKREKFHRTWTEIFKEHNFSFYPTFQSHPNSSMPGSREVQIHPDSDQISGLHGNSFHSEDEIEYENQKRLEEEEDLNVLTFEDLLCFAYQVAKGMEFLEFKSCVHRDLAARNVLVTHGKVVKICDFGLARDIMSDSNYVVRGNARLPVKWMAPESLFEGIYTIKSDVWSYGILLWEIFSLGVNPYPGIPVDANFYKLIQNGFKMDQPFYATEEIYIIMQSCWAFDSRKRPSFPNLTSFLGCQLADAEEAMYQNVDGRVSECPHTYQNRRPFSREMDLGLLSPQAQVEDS
Summary of the method: as §1

LATS2 = LATS2 (Homo sapiens, UniProt Q9NRM7); conditions: LATS2, 1 µM; read-out: residual enzyme activity
Chain of LATS2 (Q9NRM7 whole entry, species assumed): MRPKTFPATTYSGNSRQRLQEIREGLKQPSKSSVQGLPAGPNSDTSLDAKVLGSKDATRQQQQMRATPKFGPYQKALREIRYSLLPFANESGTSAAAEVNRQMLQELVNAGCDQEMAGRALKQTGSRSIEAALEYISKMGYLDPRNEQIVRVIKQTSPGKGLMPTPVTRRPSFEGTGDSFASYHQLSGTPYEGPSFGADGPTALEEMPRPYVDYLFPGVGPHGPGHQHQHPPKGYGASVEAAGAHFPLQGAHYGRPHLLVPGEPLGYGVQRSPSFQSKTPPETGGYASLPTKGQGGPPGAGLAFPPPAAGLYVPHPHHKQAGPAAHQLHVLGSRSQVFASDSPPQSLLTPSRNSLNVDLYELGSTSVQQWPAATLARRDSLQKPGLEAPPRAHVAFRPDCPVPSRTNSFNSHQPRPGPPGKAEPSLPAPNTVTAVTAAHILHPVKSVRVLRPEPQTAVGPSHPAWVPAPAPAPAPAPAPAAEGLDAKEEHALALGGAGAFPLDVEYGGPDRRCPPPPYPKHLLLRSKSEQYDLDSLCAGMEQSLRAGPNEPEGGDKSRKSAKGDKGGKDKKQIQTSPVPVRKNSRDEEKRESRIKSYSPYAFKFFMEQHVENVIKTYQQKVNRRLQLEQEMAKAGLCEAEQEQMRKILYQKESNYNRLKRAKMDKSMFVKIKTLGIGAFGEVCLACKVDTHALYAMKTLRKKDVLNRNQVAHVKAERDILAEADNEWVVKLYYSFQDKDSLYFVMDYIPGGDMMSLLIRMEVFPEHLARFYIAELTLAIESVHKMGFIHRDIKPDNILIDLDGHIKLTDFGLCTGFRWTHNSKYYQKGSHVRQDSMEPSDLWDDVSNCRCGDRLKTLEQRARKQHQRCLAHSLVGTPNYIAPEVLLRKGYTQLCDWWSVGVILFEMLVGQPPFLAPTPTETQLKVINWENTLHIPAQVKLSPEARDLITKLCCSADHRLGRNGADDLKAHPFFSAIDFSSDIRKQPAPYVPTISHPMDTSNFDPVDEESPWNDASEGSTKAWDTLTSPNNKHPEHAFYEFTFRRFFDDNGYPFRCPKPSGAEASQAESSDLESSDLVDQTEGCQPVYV
Summary of the method: as §1

PAK3 = PAK3 (Homo sapiens, UniProt O75914); conditions: PAK3, 1 µM; read-out: residual enzyme activity
Summary of the method: as §1

WNK3 = WNK3 (Homo sapiens, UniProt Q9BYP7); conditions: WNK3, 1 µM; read-out: residual enzyme activity
Summary of the method: as §1

EPHA4 = EPHA4 (Homo sapiens, UniProt P54764); conditions: EPHA4, 1 µM; read-out: residual enzyme activity
Summary of the method: as §1

FGR = FGR (Homo sapiens, UniProt P09769); conditions: read-out: residual enzyme activity
Chain of FGR (P09769 whole entry, species assumed): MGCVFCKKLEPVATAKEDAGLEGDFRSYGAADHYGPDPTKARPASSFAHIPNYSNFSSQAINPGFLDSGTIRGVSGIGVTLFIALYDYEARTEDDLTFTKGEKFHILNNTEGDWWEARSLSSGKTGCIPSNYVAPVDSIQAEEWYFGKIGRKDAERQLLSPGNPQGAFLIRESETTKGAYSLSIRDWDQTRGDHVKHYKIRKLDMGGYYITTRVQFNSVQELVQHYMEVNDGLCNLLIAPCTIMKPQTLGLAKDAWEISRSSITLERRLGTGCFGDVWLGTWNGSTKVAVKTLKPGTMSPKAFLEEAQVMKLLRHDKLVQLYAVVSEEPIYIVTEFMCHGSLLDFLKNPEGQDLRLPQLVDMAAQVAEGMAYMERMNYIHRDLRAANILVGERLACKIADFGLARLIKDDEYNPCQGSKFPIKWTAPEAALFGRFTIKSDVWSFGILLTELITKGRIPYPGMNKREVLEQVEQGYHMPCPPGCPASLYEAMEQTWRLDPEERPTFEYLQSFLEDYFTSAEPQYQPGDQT
Summary of the method: as §1

LIMK2 = LIMK2 (Homo sapiens, UniProt P53671); conditions: LIMK2, 1 µM; read-out: residual enzyme activity
Chain of LIMK2 (P53671 whole entry, species assumed): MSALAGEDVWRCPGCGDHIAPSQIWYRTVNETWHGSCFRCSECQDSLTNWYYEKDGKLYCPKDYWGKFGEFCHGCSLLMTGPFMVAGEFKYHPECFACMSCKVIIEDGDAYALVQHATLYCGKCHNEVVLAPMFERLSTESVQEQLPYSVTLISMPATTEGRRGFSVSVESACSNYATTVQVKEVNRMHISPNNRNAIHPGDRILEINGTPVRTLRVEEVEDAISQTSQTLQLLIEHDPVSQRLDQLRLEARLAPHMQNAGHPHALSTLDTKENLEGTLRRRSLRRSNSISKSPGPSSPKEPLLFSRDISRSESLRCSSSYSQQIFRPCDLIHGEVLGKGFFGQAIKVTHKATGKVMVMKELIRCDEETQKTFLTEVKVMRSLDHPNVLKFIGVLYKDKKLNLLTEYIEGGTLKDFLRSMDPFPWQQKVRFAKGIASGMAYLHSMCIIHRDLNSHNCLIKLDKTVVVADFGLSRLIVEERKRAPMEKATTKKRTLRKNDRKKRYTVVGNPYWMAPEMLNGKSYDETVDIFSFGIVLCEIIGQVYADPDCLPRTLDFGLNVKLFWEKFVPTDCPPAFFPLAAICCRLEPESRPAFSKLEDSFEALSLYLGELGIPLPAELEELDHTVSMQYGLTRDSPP
Summary of the method: as §1

ULK3 = ULK3 (Homo sapiens, UniProt Q6PHR2); conditions: ULK3, 1 µM; read-out: residual enzyme activity
Summary of the method: as §1

TAOK2/TAO1 = TAOK2/TAO1 (Homo sapiens, UniProt Q9UL54); conditions: TAOK2/TAO1, 1 µM; read-out: residual enzyme activity
Summary of the method: as §1

JNK3 = JNK3 (Homo sapiens, UniProt P53779); conditions: JNK3, 1 µM; read-out: residual enzyme activity
Summary of the method: as §1

PLK3 = PLK3 (Homo sapiens, UniProt Q9H4B4); conditions: PLK3, 1 µM; read-out: residual enzyme activity
Summary of the method: as §1

PDGFRB = PDGFRB (Homo sapiens, UniProt P09619); conditions: read-out: residual enzyme activity
Summary of the method: as §1

GRK6 = GRK6 (Homo sapiens, UniProt P43250); conditions: GRK6, 1 µM; read-out: residual enzyme activity
Chain of GRK6 (P43250 whole entry, species assumed): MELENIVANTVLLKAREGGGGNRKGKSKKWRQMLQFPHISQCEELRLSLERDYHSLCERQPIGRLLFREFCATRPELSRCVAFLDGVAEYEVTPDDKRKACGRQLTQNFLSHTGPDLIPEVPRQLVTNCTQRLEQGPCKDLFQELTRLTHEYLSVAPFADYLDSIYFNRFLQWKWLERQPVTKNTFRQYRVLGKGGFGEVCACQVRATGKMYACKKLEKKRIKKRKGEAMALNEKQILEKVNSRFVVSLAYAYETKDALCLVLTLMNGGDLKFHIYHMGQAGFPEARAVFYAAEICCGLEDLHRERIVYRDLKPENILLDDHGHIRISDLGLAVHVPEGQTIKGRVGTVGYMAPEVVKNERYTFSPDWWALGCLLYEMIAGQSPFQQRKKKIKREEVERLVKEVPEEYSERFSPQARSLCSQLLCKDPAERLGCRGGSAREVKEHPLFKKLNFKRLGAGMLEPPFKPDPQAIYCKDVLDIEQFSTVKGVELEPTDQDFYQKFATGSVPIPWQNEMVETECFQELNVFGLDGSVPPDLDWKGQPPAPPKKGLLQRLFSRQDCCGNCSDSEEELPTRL
Summary of the method: as §1

MAST3 = MAST3 (Homo sapiens, UniProt O60307); conditions: MAST3, 1 µM; read-out: residual enzyme activity
Summary of the method: as §1

TRKA = TRKA (Homo sapiens, UniProt P04629); conditions: read-out: residual enzyme activity
Chain of TRKA (P04629 33-796, species assumed): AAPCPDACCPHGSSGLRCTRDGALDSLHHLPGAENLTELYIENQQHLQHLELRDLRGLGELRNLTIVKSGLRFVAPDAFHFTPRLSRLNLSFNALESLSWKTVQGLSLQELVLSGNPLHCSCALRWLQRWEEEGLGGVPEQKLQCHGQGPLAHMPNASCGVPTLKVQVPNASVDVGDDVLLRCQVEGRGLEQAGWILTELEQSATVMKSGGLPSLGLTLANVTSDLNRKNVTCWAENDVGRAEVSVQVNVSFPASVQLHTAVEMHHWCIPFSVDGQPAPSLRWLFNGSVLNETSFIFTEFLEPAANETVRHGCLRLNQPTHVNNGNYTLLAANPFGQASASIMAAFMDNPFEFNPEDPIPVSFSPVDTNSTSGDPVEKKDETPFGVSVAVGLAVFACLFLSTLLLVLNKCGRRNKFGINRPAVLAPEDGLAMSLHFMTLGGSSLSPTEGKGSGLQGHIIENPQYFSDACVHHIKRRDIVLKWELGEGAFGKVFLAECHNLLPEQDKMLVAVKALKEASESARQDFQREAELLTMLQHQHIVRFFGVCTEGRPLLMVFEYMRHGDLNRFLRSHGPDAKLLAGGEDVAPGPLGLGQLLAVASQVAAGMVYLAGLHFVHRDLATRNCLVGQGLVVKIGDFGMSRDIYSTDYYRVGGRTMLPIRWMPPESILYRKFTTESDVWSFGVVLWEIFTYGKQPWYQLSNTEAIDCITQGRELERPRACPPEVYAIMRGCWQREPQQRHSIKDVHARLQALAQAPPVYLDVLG
Summary of the method: as §1

P70S6K/RPS6KB1 = P70S6K/RPS6KB1 (Homo sapiens, UniProt P23443); conditions: read-out: residual enzyme activity
Summary of the method: as §1

MARK3 = MARK3 (Homo sapiens, UniProt P27448); conditions: MARK3, 1 µM; read-out: residual enzyme activity
Summary of the method: as §1

HCK = HCK (Homo sapiens, UniProt P08631); conditions: read-out: residual enzyme activity
Summary of the method: as §1

FRK/PTKS = FRK/PTKS (Homo sapiens, UniProt P42685); conditions: read-out: residual enzyme activity
Chain of FRK/PTKS (P42685 whole entry): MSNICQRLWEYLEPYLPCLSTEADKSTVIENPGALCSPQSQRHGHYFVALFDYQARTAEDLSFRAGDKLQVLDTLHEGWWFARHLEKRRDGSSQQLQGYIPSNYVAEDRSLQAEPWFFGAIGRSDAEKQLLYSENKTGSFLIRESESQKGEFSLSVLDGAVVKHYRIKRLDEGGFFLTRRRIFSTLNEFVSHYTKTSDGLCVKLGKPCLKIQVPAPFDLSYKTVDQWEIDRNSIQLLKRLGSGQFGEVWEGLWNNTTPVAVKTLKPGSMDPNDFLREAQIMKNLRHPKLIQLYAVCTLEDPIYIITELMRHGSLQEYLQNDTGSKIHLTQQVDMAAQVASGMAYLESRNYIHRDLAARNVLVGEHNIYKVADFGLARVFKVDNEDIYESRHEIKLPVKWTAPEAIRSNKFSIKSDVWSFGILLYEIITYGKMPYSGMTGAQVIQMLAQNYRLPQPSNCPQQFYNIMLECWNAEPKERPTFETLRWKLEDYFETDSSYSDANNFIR
Summary of the method: as §1

CDK1/CYCLIN E = CDK1/CYCLIN E (Homo sapiens, UniProt P06493); conditions: read-out: residual enzyme activity
Summary of the method: as §1

FAK/PTK2 = FAK/PTK2 (Homo sapiens, UniProt Q05397); conditions: FAK/PTK2, 1 µM; read-out: residual enzyme activity
Summary of the method: as §1

CDK3/CYCLIN E = CDK3/CYCLIN E (Homo sapiens, UniProt Q00526); conditions: read-out: residual enzyme activity
Summary of the method: as §1

PKN2/PRK2 = PKN2/PRK2 (Homo sapiens, UniProt Q16513); conditions: PKN2/PRK2, 1 µM; read-out: residual enzyme activity
Summary of the method: as §1

PAK4 = PAK4 (Homo sapiens, UniProt O96013); conditions: PAK4, 1 µM; read-out: residual enzyme activity
Summary of the method: as §1

DDR1 = DDR1 (Homo sapiens, UniProt Q08345); conditions: DDR1, 1 µM; read-out: residual enzyme activity
Summary of the method: as §1

MASTL = MASTL (Homo sapiens, UniProt Q96GX5); conditions: read-out: residual enzyme activity
Summary of the method: as §1

STK16 = STK16 (Homo sapiens, UniProt O75716); conditions: STK16, 1 µM; read-out: residual enzyme activity
Summary of the method: as §1

WEE1 = WEE1 (Homo sapiens, UniProt P30291); conditions: WEE1, 1 µM; read-out: residual enzyme activity
Summary of the method: as §1

AURORA A = AURORA A (Homo sapiens, UniProt O14965); conditions: read-out: residual enzyme activity
Summary of the method: as §1

CAMK1B = CAMK1B (Homo sapiens, UniProt Q6P2M8); conditions: read-out: residual enzyme activity
Summary of the method: as §1

Row | Compound | remaining activity at 1 µM (KDR/VEGFR2) [%] | remaining activity at 1 µM (TTBK1) [%] | remaining activity at 1 µM (STK21/CIT) [%] | remaining activity at 1 µM (MLCK/MYLK) [%] | remaining activity at 1 µM (FLT3) [%] | remaining activity at 1 µM (LATS2) [%] | remaining activity at 1 µM (PAK3) [%] | remaining activity at 1 µM (WNK3) [%] | remaining activity at 1 µM (EPHA4) [%] | remaining activity at 1 µM (FGR) [%] | remaining activity at 1 µM (LIMK2) [%] | remaining activity at 1 µM (ULK3) [%] | remaining activity at 1 µM (TAOK2/TAO1) [%] | remaining activity at 1 µM (JNK3) [%] | remaining activity at 1 µM (PLK3) [%] | remaining activity at 1 µM (PDGFRB) [%] | remaining activity at 1 µM (GRK6) [%] | remaining activity at 1 µM (MAST3) [%] | remaining activity at 1 µM (TRKA) [%] | remaining activity at 1 µM (MARK3) [%] | further results
1 | Cc1ccc(Nc2ncc3c(n2)C2(CC2)C(=O)N(c2cc(NC(=O)c4cccc(C(F)(F)F)c4)ccc2C)C3)cn1 [Compound 51, N-(4-methyl-3-(2'-((6-methylpyridin-3-yl)amino)-7'-oxo-5'H-spiro[cyclopropane-1,8'-pyrido[4,3-d]pyrimidine]-6'(7'H)-yl)phenyl)-3-(trifluoromethyl)benzamide] | ≤ 40 | > 40 | > 40 | > 40 | ≤ 40 | ≤ 40 | > 40 | > 40 | ≤ 40 | ≤ 40 | ≤ 40 | > 40 | ≤ 40 | ≤ 40 | > 40 | ≤ 40 | > 40 | > 40 | ≤ 40 | > 40 | remaining activity at 1 µM (P70S6K/RPS6KB1; p70S6K/RPS6KB1, 1 µM): ≤ 40%; remaining activity at 1 µM (HCK): ≤ 40%; remaining activity at 1 µM (FRK/PTKS): ≤ 40%; remaining activity at 1 µM (CDK1/CYCLIN E): > 40%; remaining activity at 1 µM (FAK/PTK2): ≤ 40%; remaining activity at 1 µM (CDK3/CYCLIN E): > 40%; remaining activity at 1 µM (PKN2/PRK2): > 40%; remaining activity at 1 µM (PAK4): > 40%; remaining activity at 1 µM (DDR1): ≤ 40%; remaining activity at 1 µM (MASTL): > 40%; remaining activity at 1 µM (STK16): > 40%; remaining activity at 1 µM (WEE1): > 40%; remaining activity at 1 µM (AURORA A): > 40%; remaining activity at 1 µM (CAMK1B; CAMK1b): > 40%
2 | Cc1cn(-c2cc(C(=O)Nc3ccc(C)c(N4Cc5cnc(NC6CC6)nc5C5(CC5)C4=O)c3)cc(C(F)(F)F)c2)cn1 [Compound 8, N-(3-(2'-(cyclopropylamino)-7'-oxo-5'H-spiro[cyclopropane-1,8'-pyrido[4,3-d]pyrimidine]-6'(7'H)-yl)-4-methylphenyl)-3-(4-methyl-1H-imidazol-1-yl)-5-(trifluoromethyl)benzamide] | ≤ 40 | > 40 | > 40 | > 40 | ≤ 40 | ≤ 40 | > 40 | > 40 | ≤ 40 | ≤ 40 | ≤ 40 | > 40 | ≤ 40 | > 40 | > 40 | ≤ 40 | > 40 | > 40 | ≤ 40 | > 40 | remaining activity at 1 µM (P70S6K/RPS6KB1; P70S6K/RPS6KB1, 1 µM): > 40%; remaining activity at 1 µM (HCK): ≤ 40%; remaining activity at 1 µM (FRK/PTKS): ≤ 40%; remaining activity at 1 µM (CDK1/CYCLIN E): > 40%; remaining activity at 1 µM (FAK/PTK2): ≤ 40%; remaining activity at 1 µM (CDK3/CYCLIN E): > 40%; remaining activity at 1 µM (PKN2/PRK2): > 40%; remaining activity at 1 µM (PAK4): > 40%; remaining activity at 1 µM (DDR1): ≤ 40%; remaining activity at 1 µM (MASTL): > 40%; remaining activity at 1 µM (STK16): > 40%; remaining activity at 1 µM (WEE1): > 40%; remaining activity at 1 µM (AURORA A): > 40%; remaining activity at 1 µM (CAMK1B; CAMK1B): > 40%
